Measured values published in ChEMBL document CHEMBL3734661, “The chemistry and pharmacology of privileged pyrroloquinazolines” (Medchemcomm, 2015).
Where a chain is given by its changes, count along the chain named. Values after ≈ are worked out from the molar mass of the structure shown. Values belong to the molecule of their own block, whether it stands above or below them.

What was measured:
L1210 = assay: Cytotoxicity against mouse L1210 cells assessed as growth inhibition after 48 hrs by MTT assay; format: functional, cell-based; conditions: L1210, 48 h
[1] = Inhibition of DHFR in Crithidia oncopelti using dihydrofolate as substrate preincubated for 5 mins followed by substrate addition by spectrofluorometric analysis
Dihydrofolate reductase [2] = target: T1, Dihydrofolate reductase (Mus musculus, UniProt P00375); assay: Inhibition of DHFR in mouse L1210 cells using dihydrofolate as substrate preincubated for 5 mins followed by substrate addition by spectrofluorometric analysis; format: cell-based
T1 sequence (P00375 whole entry): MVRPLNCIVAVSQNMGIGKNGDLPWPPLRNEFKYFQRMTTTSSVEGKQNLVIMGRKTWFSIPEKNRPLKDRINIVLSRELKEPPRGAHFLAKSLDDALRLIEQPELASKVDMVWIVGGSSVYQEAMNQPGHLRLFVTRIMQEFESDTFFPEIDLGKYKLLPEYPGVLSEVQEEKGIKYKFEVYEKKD

Dihydrofolate reductase [3] = target: T2, Dihydrofolate reductase (Rattus norvegicus, UniProt Q920D2); assay: Inhibition of rat DHFR extracted from liver using dihydrofolate as substrate preincubated for 5 mins followed by substrate addition by spectrofluorometric analysis
T2 sequence (Q920D2 whole entry): T1 sequence (P00375 whole entry) with P27L, R85Q, R99K, I115V, G155E, V170I

Dihydrofolate reductase [4] = target: Dihydrofolate reductase (Lactobacillus casei, UniProt P00381); assay: Inhibition of DHFR in Lactobacillus casei using dihydrofolate as substrate preincubated for 5 mins followed by substrate addition by spectrofluorometric analysis; set-up: species or system Lacticaseibacillus casei
Plasmodium falciparum [5] = assay: Antimalarial activity against Plasmodium falciparum TM91C235 assessed as [3H]hypoxantine incorporation preincubated for 48 hrs followed by [3H]hypoxantine addition measured after 18 hrs by scintillation counting analysis; format: functional, organism-based
Plasmodium falciparum [6] = assay: Antimalarial activity against Plasmodium falciparum D6 assessed as [3H]hypoxantine incorporation preincubated for 48 hrs followed by [3H]hypoxantine addition measured after 18 hrs by scintillation counting analysis; format: functional, organism-based
[7] = Therapeutic index, ratio of MTD for Sprague-Dawley rat to MCD for Plasmodium berghei infected in Sprague-Dawley rat; conditions: read-out: TI
Plasmodium falciparum [8] = assay: Antimalarial activity against Plasmodium falciparum W-2 assessed as [3H]hypoxantine incorporation preincubated for 48 hrs followed by [3H]hypoxantine addition measured after 18 hrs by scintillation counting analysis; format: functional, organism-based
Plasmodium falciparum [9] = assay: Antimalarial activity against Plasmodium falciparum RCS assessed as [3H]hypoxantine incorporation preincubated for 48 hrs followed by [3H]hypoxantine addition measured after 18 hrs by scintillation counting analysis; format: functional, organism-based
[10] = Cytotoxic activity against human HL60 cells; format: functional, cell-based; conditions: HL-60
Candida = assay: Antifungal activity against Candida clinical isolates after 24 hrs by microtiter method; format: functional
Candida albicans = assay: Antifungal activity against Candida albicans after 24 hrs by microtiter method; format: functional
Human alphaherpesvirus 1 = assay: Antiviral activity against HSV1 after 1.5 hrs by microtiter plate reader analysis; conditions: Human alphaherpesvirus 1, 1.5 h
[11] = Oral bioavailability in Beagle dog at 5 mg/kg; format: ADME, organism-based, Canis lupus familiaris; conditions: in vivo
Dihydrofolate reductase [12] = target: T3, Dihydrofolate reductase (Homo sapiens, UniProt P00374); assay: Competitive inhibition of human recombinant DHFR preincubated for 2 mins followed by substrate addition in presence of dihydrofolate
T3 sequence (P00374 whole entry): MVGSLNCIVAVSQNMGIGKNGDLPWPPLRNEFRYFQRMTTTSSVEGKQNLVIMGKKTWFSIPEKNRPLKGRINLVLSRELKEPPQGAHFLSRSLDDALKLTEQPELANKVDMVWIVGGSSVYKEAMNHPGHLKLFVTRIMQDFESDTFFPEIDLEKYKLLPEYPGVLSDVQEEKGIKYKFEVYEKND

[13] = Tmax in Beagle dog at 5 mg/kg, po; format: ADME, organism-based, Canis lupus familiaris; conditions: in vivo
[14] = Cytotoxicity against human HCT8 cells assessed as growth inhibition by MTT assay; format: functional; conditions: HCT-8
[15] = Half life in Beagle dog at 5 mg/kg, po; format: ADME, organism-based, Canis lupus familiaris; conditions: in vivo
[16] = Cmax in Beagle dog at 5 mg/kg, po after 1.8 hrs; format: ADME, organism-based, Canis lupus familiaris; set-up: dose 5 mg/kg, route oral; conditions: in vivo
[17] = Volume of distribution in Beagle dog at 2.5 mg/kg, iv; format: ADME, organism-based, Canis lupus familiaris; conditions: in vivo
[18] = Half life in Beagle dog at 2.5 mg/kg, iv; format: ADME, organism-based, Canis lupus familiaris; conditions: in vivo

SMILES: CC(=O)N(C(C)=O)c1nc(N(C(C)=O)C(C)=O)c2c(ccc3c2ccn3Cc2ccccc2C(F)(F)F)n1
IC50 (Plasmodium falciparum [5]): 0.16 nM
IC50 (Plasmodium falciparum [6]): 0.046 nM
selectivity ratio [7]: 80
IC50 (Plasmodium falciparum [8]): 0.14 nM
IC50 (Plasmodium falciparum [9]): 0.046 nM

SMILES: CCn1c2ccccc2c2c3c(=O)[nH]c(NCCN(C)C)nc3ccc21
IC50 [10]: 17000 nM

SMILES: Cc1cc2c(ccc3nc(N)nc(N)c32)[nH]1
IC50 (Human alphaherpesvirus 1): 15000 nM

SMILES: CCC(CC)n1c(C)cc2c3c(N)nc(N)nc3ccc21
bioavailability [11]: 49%
Ki (Dihydrofolate reductase [12]): 0.0003 nM
Tmax [13]: 1.8 h
GI50 [14]: 0.74 nM
half-life [15]: 4 h
Cmax [16]: 170 ng/mL
MIC (Candida albicans): 0.025 µg/mL (≈ 0.0882 µM)
Vd [17]: 9.3 L/g
half-life [18]: 2.8 h

SMILES: Nc1nc(N)c2c(ccc3[nH]ccc32)n1
Ki (Dihydrofolate reductase [12]): 1 nM

More lines, main results first:

IC50 [1]: 0.7 nM
IC50 (Dihydrofolate reductase [2]): 4 nM
IC50 (Dihydrofolate reductase [3]): 2.1 nM
IC50 (Dihydrofolate reductase [4]): 6.4 nM
SMILES: N#Cc1ccc(Cn2ccc3c4c(N)nc(N)nc4ccc32)cc1
IC50 (L1210): 40 nM

MIC (Candida): 1.39 µg/mL (≈ 5.49 µM)
MIC (Candida albicans): 1.39 µg/mL (≈ 5.49 µM)
SMILES: Nc1nc(N)c2c(ccc3c2ccn3CC2CC2)n1

MIC (Candida): 0.64 µg/mL (≈ 2.21 µM)
MIC (Candida albicans): 0.64 µg/mL (≈ 2.21 µM)
SMILES: Nc1nc(N)c2c(ccc3c2ccn3Cc2ccccc2)n1
